Experimental data from patent publication US10138247B2, “7-(morpholin-4-yl)pyrazole[1,5-A]pyrimidine derivatives as PI3 kinase inhibitors” (priority 2015, dated 2018).
Like-named read-outs stand apart in the source and are kept apart here.

Key:
PI3Kδ = target: T1, PI3Kδ (Homo sapiens, UniProt O00329); assay: PI3K kinases inhibition in vitro (ADP-Glo), PI3Kδ; format: biochemical
T1 construct: purchased Merck Millipore
Description: (§1) Tested compounds were dissolved in 100% DMSO, and thus obtained solutions were serially diluted in 1× reaction buffer. Recombinant kinase was diluted in a reaction mixture comprising 5× reaction buffer, substrate (1 mM sodium diacetate 4,5-bisphosphate phosphatydylinositol (PIP2) solution in 40 mM Tris buffer), and water. To the wells in a 96-wells plate, 5 μl of compounds solutions and 15 μl of the kinase solution in the reaction mixture were added. To initiate interaction of tested chemical compounds with the enzyme, the plate was incubated for 10 minutes at suitable temperature in a plate thermostat with orbital shaking at 600 rpm. Negative control wells contained all above reagents except tested compound and kinase, and positive control wells contained all above reagents except tested compounds. Enzymatic reaction was initiated by adding 5 μl of 150 μM ATP solution, subsequently the plate was incubated for 1 hour at 25° C. or 30° C. (depending on PI3K isoform tested) in plate thermostat with orbital shaking of the plate contents at 600 rpm. Reaction conditions are presented below in Table 12.
(§2) Detection of ADP formed in the enzymatic reaction was then performed using ADP-Glo Kinase Assay (Promega). To the wells of a 96-well plate 25 μl of ADP-Glo Reagent were added, and the plate was incubated for 40 minutes at 25° C. in a plate thermostat with orbital shaking at 600 rpm. Then to the wells of 96-well plate 50 μl of Kinase Detection Reagent were added and the plate was incubated for 40 minutes at 25° C. in a plate thermostat with orbital shaking at 600 rpm. After incubation time, luminescence intensity in a well was measured by Victor Light luminometer (Perkin Elmer, Inc.).
(§3) IC50 values were determined on the basis of luminescence intensity measurements in wells containing tested compounds at different concentrations and in control wells. These values were calculated with Graph Pad 5.03 software by fitting the curve using non-linear regression. Each compound was tested at least in quadruplicates (4 wells) on two 96-well plates using at least 4 wells of each of the controls.

PI3Kα = target: T2, PI3Kα (Homo sapiens, UniProt P42336); assay: PI3K kinases inhibition in vitro (ADP-Glo), PI3Kα; format: biochemical
T2 construct: purchased Carna Biosciences
T2 sequence (P42336 whole entry): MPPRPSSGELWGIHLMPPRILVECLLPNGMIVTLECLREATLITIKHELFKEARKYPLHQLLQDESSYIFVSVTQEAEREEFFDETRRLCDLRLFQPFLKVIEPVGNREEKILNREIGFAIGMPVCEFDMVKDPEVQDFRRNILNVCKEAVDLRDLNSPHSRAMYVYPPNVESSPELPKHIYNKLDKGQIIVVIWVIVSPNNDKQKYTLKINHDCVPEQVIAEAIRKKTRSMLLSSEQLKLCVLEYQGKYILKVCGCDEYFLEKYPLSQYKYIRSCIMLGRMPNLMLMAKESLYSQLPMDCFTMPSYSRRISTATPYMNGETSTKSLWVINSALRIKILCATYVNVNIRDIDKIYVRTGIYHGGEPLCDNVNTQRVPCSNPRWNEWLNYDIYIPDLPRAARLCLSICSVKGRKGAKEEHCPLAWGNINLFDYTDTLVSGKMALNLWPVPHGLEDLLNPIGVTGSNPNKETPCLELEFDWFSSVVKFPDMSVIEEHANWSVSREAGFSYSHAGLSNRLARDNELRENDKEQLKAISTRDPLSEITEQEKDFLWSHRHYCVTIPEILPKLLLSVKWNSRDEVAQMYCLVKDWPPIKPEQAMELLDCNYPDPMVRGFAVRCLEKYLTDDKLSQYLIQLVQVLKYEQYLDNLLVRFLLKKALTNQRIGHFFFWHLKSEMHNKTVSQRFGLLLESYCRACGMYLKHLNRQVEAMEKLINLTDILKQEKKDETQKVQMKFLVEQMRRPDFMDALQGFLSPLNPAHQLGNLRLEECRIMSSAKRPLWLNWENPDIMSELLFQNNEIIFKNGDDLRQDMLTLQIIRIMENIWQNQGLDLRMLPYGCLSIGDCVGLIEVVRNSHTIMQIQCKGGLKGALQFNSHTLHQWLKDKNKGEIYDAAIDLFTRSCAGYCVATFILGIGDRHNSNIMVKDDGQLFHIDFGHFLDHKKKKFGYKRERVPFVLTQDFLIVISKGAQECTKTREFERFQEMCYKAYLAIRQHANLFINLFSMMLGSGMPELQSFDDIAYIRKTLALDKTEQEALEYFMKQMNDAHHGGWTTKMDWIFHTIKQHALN
T2 sequence (P27986 whole entry partner): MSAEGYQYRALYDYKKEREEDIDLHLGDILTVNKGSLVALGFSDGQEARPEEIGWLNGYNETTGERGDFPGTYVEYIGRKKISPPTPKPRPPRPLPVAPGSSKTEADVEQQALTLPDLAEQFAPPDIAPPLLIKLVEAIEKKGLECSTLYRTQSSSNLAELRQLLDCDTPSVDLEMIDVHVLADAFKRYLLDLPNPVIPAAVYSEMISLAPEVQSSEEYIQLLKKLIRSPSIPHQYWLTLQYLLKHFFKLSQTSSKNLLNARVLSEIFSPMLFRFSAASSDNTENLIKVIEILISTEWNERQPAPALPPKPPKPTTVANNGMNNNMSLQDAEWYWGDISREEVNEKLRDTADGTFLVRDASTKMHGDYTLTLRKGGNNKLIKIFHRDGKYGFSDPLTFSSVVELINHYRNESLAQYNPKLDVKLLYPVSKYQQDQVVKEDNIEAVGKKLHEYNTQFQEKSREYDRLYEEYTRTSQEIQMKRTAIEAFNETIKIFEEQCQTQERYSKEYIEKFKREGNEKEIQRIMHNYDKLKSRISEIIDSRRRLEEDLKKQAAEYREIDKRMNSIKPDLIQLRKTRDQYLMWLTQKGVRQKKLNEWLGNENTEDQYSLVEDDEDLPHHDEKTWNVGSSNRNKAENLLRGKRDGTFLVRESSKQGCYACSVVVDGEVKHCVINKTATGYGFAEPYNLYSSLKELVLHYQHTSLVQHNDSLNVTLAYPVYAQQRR
Description: as §1, §2, §3

[1] = averaged, recombinant kinase, 25° C., 1 h, PIP2 30 μM, read-out: PI3Kδ IC50

T1 sequence (O00329 whole entry): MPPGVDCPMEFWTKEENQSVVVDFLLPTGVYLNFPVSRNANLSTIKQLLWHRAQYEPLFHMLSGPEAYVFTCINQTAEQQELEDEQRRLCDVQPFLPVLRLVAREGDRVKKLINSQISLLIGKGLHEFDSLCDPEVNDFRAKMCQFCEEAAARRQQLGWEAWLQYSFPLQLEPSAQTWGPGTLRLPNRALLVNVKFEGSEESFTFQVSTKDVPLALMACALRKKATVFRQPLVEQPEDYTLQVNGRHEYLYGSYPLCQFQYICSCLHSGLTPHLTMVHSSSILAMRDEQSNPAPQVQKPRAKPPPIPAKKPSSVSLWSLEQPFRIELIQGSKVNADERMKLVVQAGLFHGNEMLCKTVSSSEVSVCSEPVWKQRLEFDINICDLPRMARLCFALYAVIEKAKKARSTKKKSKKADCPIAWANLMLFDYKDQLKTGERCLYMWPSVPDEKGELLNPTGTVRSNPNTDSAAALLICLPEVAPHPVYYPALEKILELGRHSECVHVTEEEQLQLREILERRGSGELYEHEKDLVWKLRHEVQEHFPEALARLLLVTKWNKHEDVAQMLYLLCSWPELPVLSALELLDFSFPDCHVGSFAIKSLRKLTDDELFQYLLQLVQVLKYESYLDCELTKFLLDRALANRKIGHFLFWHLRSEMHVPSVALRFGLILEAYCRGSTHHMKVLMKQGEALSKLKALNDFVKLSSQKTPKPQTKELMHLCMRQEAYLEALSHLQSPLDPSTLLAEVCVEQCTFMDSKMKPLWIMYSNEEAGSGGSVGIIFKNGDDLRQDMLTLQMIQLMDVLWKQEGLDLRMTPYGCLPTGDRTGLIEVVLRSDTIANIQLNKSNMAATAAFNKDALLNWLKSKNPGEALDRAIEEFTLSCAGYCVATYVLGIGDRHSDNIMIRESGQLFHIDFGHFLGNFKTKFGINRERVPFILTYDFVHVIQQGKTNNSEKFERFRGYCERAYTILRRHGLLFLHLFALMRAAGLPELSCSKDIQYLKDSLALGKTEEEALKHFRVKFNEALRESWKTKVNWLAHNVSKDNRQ
T1 sequence (P27986 whole entry, further chain): as the sequence (P27986 whole entry partner) above

SMILES	IC50 (PI3Kδ) [nM]	IC50 (PI3Kα) [nM]	IC50 (PI3Kδ; [1]) [nM]
CS(=O)(=O)N1CCN(Cc2cc3nc(-c4cccc5[nH]ccc45)cc(N4CCOCC4)n3n2)CC1 [Example 2, 5-(1H-indol-4-yl)-2-((4-(methyl-sulphonyl)piperazin-1-yl)methyl)-7-(morpholin-4-yl)pyrazolo[1,5-a]-pyrimidine]	100 to 1000	> 1000	–
CN1CCN(C2CCN(Cc3cc4nc(-c5cccc6[nH]ccc56)cc(N5CCOCC5)n4n3)CC2)CC1 [Example 3, 5-(1H-indol-4-yl)-2-((4-(4-methylpiperazin-1-yl)piperidin-1-yl)methyl)-7-(morpholin-4-yl)pyrazolo[1,5-a] pyrimidine]	< 100	> 1000	–
COc1ccc(N2CCN(Cc3cc4nc(-c5cccc6[nH]ccc56)cc(N5CCOCC5)n4n3)CC2)cc1 [Example 6, 5-(1H-indol-4-yl)-2-((4-(4-methoxyphenyl)piperazin-1-yl)-methyl)-7-(morpholin-4-yl)-pyrazolo[1,5-a]pyrimidine]	100 to 1000	> 1000	–
CC(C)(C)N1CCN(Cc2cc3nc(-c4cccc5[nH]ncc45)cc(N4CCOCC4)n3n2)CC1 [Example 12, 2-((4-tert-butylpiperazin-1-yl)methyl)-5-(1H-indazol-4-yl)-7-(morpholin-4-yl)pyrazolo[1,5-a]-pyrimidine]	–	> 1000	< 100
CN1CCN(C2CCN(Cc3cc4nc(-c5c(F)ccc6[nH]ccc56)cc(N5CCOCC5)n4n3)CC2)CC1 [Example 14, 5-(5-fluoro-1H-indol-4-yl)-2-((4-(4-methylpiperazin-1-yl)piperidin-1-yl)methyl)-7-(morpholin-4-yl)-pyrazolo[1,5-a]pyrimidine]	–	> 1000	< 100
CC(C)(O)C1CCN(Cc2cc3nc(-c4cccc5[nH]ncc45)cc(N4CCOCC4)n3n2)CC1 [Example 15, 2-((4-(2-hydroxypropan-2-yl)-piperidin-1-yl)methyl)-5-(1H-indazol-4-yl)-7-(morpholin-4-yl)-pyrazolo[1,5-a]pyrimidine]	–	> 1000	100 to 1000
CC(C)(O)C1CCN(Cc2cc3nc(-c4cnc(N)nc4)cc(N4CCOCC4)n3n2)CC1 [Example 18, 5-(2-aminopyrimidin-5-yl)-2-((4-(2-hydroxypropan-2-yl)piperidin-1-yl)methyl)-7-(morpholin-4-yl)-pyrazolo[1,5-a]pyrimidine]	–	> 1000	100 to 1000
CN1CCN(Cc2cc3nc(-c4cccc5[nH]ccc45)cc(N4CCOCC4)n3n2)CC1 [Example 21, 5-(1H-indol-4-yl)-2-((4-methyl-piperazin-1-yl)methyl)-7-(morpholin-4-yl)pyrazolo[1,5-a]-pyrimidine]	100 to 1000	> 1000	–
O=S1(=O)CCN(Cc2cc3nc(-c4cccc5[nH]ccc45)cc(N4CCOCC4)n3n2)CC1 [Example 23, 2-((1,1-dioxothio-morpholin-1-yl)-methyl)-5-(1H-indol-4-yl)-7-(morpholin-4-yl)pyrazolo[1,5-a]-pyrimidine]	100 to 1000	> 1000	–
COC(=O)C1CCN(Cc2cc3nc(-c4cccc5[nH]ccc45)cc(N4CCOCC4)n3n2)CC1 [Example 24, Methyl 1-((5-(1H-indol-4-yl)-7-(morpholin-4-yl)pyrazolo[1,5-a]-pyrimidin-2-yl)methyl)piperidin-4-carboxylate]	100 to 1000	> 1000	–
c1cc(-c2cc(N3CCOCC3)n3nc(CN4CCN(CC5CC5)CC4)cc3n2)c2cc[nH]c2c1 [Example 26, 2-((4-(cyclopropylmethyl)piperazin-1-yl)methyl)-5-(1H-indol-4-yl)-7-(morpholin-4-yl)pyrazolo[1,5-a]-pyrimidine]	< 100	> 1000	–
c1cc(-c2cc(N3CCOCC3)n3nc(CN4CCN(C5CCCC5)CC4)cc3n2)c2cc[nH]c2c1 [Example 27, 2-((4-cyclopentylpiperazin-1-yl)-methyl)-5-(1H-indol-4-yl)-7-(morpholin-4-yl)pyrazolo[1,5-a]-pyrimidine]	< 100	> 1000	–
c1cc(-c2cc(N3CCOCC3)n3nc(CN4CCN(C5COC5)CC4)cc3n2)c2cc[nH]c2c1 [Example 34]	< 100	> 1000	–
c1cc(-c2cc(N3CCOCC3)n3nc(CN4C[C@@H]5C[C@H]4CN5C4COC4)cc3n2)c2cc[nH]c2c1 [Example 36, 5-(1H-indol-4-yl)-2-(((1S, 4S)-2-(oxetan-3-yl)-2,5-diazabicyclo [2.2.1]hept-2-yl)methyl)-7-(morpholin-4-yl)pyrazolo[1,5-a]-pyrimidine]	< 100	> 1000	–
O=C(Nc1ccccc1)NC1CCN(Cc2cc3nc(-c4cccc5[nH]ccc45)cc(N4CCOCC4)n3n2)CC1 [Example 37]	100 to 1000	–	–
CCNC(=O)NC1CCN(Cc2cc3nc(-c4cccc5[nH]ccc45)cc(N4CCOCC4)n3n2)CC1 [Example 38]	100 to 1000	> 1000	–
CCc1nc2ccccc2n1-c1cc(N2CCOCC2)n2nc(CN3CCN(S(C)(=O)=O)CC3)cc2n1 [Example 42, 5-(2-ethylbenzimidazol-1-yl)-2-((4-(methylsulphonyl)piperazin-1-yl)methyl)-7-(morpholin-4-yl)-pyrazolo[1,5-a]pyrimidine]	–	> 1000	100 to 1000
CCc1nc2ccccc2n1-c1cc(N2CCOCC2)n2nc(CN3CCC(N(C)C)CC3)cc2n1 [Example 43, 5-(2-ethylbenzimidazo-1-yl)-2-((4-(dimethylamino)piperidin-1-yl)-methyl)-7-(morpholin-4-yl)-pyrazolo[1,5-a]pyrimidine]	–	> 1000	100 to 1000
CCc1nc2ccccc2n1-c1cc(N2CCOCC2)n2nc(CN3CCN(C(C)(C)C)CC3)cc2n1 [Example 47, 5-(2-ethylbenzimidazol-1-yl)-2-((4-tert-butylpiperazin-1-yl)methyl)-7-(morpholin-4-yl)pyrazolo[1,5-a]-pyrimidine]	–	> 1000	< 100
Cc1nc2ccccc2n1-c1cc(N2CCOCC2)n2nc(CN3CCN(C(C)(C)C)CC3)cc2n1 [Example 48, 5-(2-methylbenzimidazol-1-yl)-2-((4-tert-butylopiperazin-1-yl)-methyl)-7-(morpholin-4-yl)-pyrazolo[1,5-a]pyrimidine]	–	> 1000	100 to 1000
Cc1nc2ccccc2n1-c1cc(N2CCOCC2)n2nc(CN3CCC(C(C)(C)O)CC3)cc2n1 [Example 49, 5-(2-methylbenzimidazol-1-yl)-2-((4-(2-hydroxypropan-2-yl)-piperidin-1-yl)methyl)-7-(morpholin-4-yl)pyrazolo[1,5-a]-pyrimidine]	–	> 1000	100 to 1000
CC(C)c1nc2ccccc2n1-c1cc(N2CCOCC2)n2nc(CN3CCN(C(C)(C)C)CC3)cc2n1 [Example 52, 5-(2-iso-propylbenzimidazol-1-yl)-2-((4-tert-butylpiperazin-1-yl)-methyl)-7-(morpholin-4-yl)-pyrazolo[1,5-a]pyrimidine]	–	> 1000	100 to 1000
CC(C)c1nc2ccccc2n1-c1cc(N2CCOCC2)n2nc(CN3CCC(C(C)(C)O)CC3)cc2n1 [Example 53, 5-(2-iso-propylbenzimidazol-1-yl)-2-((4-(2-hydroxypropan-2-yl)-piperidin-1-yl)methyl)-7-(morpholin-4-yl)pyrazolo[1,5-a]-pyrimidine]	–	> 1000	100 to 1000
CC(C)(C)N1CCN(Cc2cc3nc(-n4c(C5CC5)nc5ccccc54)cc(N4CCOCC4)n3n2)CC1 [Example 54, 5-(2-cyclopropylbenzimidazol-1-yl)-2-((4-tert-butylpiperazin-1-yl)-methyl)-7-(morpholin-4-yl)-pyrazolo[1,5-a]pyrimidine]	–	> 1000	100 to 1000
CC(C)(O)C1CCN(Cc2cc3nc(-n4c(C5CC5)nc5ccccc54)cc(N4CCOCC4)n3n2)CC1 [Example 55, 5-(2-cyclopropylbenzimidazol-1-yl)-2-((4-(2-hydroxypropan-2-yl)-piperidin-1-yl)methyl)-7-(morpholin-4-yl)pyrazolo[1,5-a]-pyrimidine]	–	> 1000	100 to 1000
C[C@@H]1CN(C2CN(Cc3cc4nc(-n5c(C(F)F)nc6ccccc65)cc(N5CCOCC5)n4n3)C2)C[C@H](C)O1 [Example 65, 5-(2-(difluoromethyl)benzimidazol-1-yl)-2-((3-((2R,6S)-2,6-dimethylmorpholin-4-yl)azetidin-1-yl)methyl)-7-(morpholin-4-yl)-pyrazolo[1,5-a]pyrimidine]	–	–	< 100
COC1CN(C2CN(Cc3cc4nc(-n5c(C(F)F)nc6ccccc65)cc(N5CCOCC5)n4n3)C2)C1 [Example 67, 5-(2-(difluoromethyl)benzimidazol-1-yl)-2-((3-(3-methoxyazetidin-1-yl)azetidin-1-yl)methyl)-7-(morpholin-4-yl)pyrazolo[1,5-a]-pyrimidine]	–	–	< 100
